Drawing on PubChem BioAssay AID220 (DTP/NCI, 2004), this text covers T/C for 15 compounds.

“And” between values parts separate entries of the source, which are not always exact repeats. Identical values can stand only once. Results filed as inconclusive are left out.

This test deals with CD8F1 mice, subcutaneous mammary adenocarcinoma, T/C%. Put plainly: NCI In Vivo Anticancer Drug Screen. Data for tumor model Mammary Adenocarcinoma CD8F1 (subcutaneous) in CD8F1. As to conditions: higher = larger tumour. In a few lines: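 Ratio of treated to vehicle-control outcome, based on either survival or tumor size, in mice bearing transplantable tumors given the test compound.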

Setting [1] is: endpoint: median tumor weight (est.), dose: 25.0 mg/kg/injection, schedule: Q07DX005 (ip), vehicle: saline with Tween-80.
Where [2] appears, read: endpoint: median tumor weight (est.), dose: 100.0 mg/kg/injection, schedule: Q07DX005 (ip), vehicle: saline with Tween-80.
Setting [3] is: endpoint: median tumor weight (est.), dose: 200.0 mg/kg/injection, schedule: Q07DX005 (ip), vehicle: saline with Tween-80.
[4] abbreviates: endpoint: median tumor weight (est.), dose: 400.0 mg/kg/injection, schedule: Q07DX005 (ip), vehicle: saline with Tween-80.

Turning to `COC(=O)C(Cl)(Cl)N=Nc1c(Cl)cc(Cl)c(C)c1Cl`, the T/C is 104 % of control under setting [1]; 71 % of control under setting [2]; 85 % of control and 110 % of control under setting [3]; 78 % of control (endpoint: median tumor weight change, dose: 400.0 mg/kg/injection, schedule: Q01DX001 (ip), vehicle: saline with Tween-80).

With `Nc1nc2c(ncn2C2OC(CO)C(O)C2O)c(=O)[nH]1` (stereo not given), the T/C runs as follows: under setting [2], 86 % of control; under setting [3], 92 % of control; under setting [4], 110 % of control; (endpoint: median tumor weight (est.), dose: 800.0 mg/kg/injection, schedule: Q07DX005 (ip), vehicle: saline with Tween-80) 88 % of control; (endpoint: median tumor weight (est.), dose: 1600.0 mg/kg/injection, schedule: Q07DX005 (ip), vehicle: saline with Tween-80) 103 % of control; (endpoint: median tumor weight (est.), dose: 3200.0 mg/kg/injection, schedule: Q07DX005 (ip), vehicle: saline with Tween-80) 84 % of control.

For `OCC12COCN1COC2`, the T/C was 100 % of control (endpoint: median tumor weight change, dose: 50.0 mg/kg/injection, schedule: Q01DX001 (ip), vehicle: saline); 107 % of control (endpoint: median tumor weight change, dose: 100.0 mg/kg/injection, schedule: Q01DX001 (ip), vehicle: saline); 71 % of control (endpoint: median tumor weight change, dose: 200.0 mg/kg/injection, schedule: Q01DX001 (ip), vehicle: saline); 87 % of control (endpoint: median tumor weight change, dose: 400.0 mg/kg/injection, schedule: Q01DX001 (ip), vehicle: saline); 82 % of control (endpoint: median tumor weight change, dose: 800.0 mg/kg/injection, schedule: Q01DX001 (ip), vehicle: saline).

Take `c1ccc2sc(SSN3CC4CCC(CC4)C3)nc2c1`: the T/C (endpoint: median tumor weight (est.), dose: 12.5 mg/kg/injection, schedule: Q07DX005 (ip), vehicle: saline with Tween-80) is 26 % of control; the T/C under setting [1] is 33 % of control; the T/C (endpoint: median tumor weight (est.), dose: 50.0 mg/kg/injection, schedule: Q07DX005 (ip), vehicle: saline with Tween-80) was 101 % of control; the T/C under setting [2] was 81 % of control; the T/C under setting [3] is 62 % of control; the T/C under setting [4] was 53 % of control.

`Oc1cc2ccccc2c(-c2c(O)c(O)cc3ccccc23)c1O`: the T/C is, setting by setting: under setting [1], 67 % of control; under setting [2], 55 % of control; under setting [3], 109 % of control.

In the case of `CC(C)[NH-].CC(C)[NH-].O.O.[Cl][Pt+2][Cl]`, the T/C (endpoint: median tumor weight (est.), dose: 6.25 mg/kg/injection, schedule: Q07DX005 (ip), vehicle: dextrose) is 121 % of control; the T/C (endpoint: median tumor weight (est.), dose: 12.5 mg/kg/injection, schedule: Q07DX005 (ip), vehicle: dextrose) is 121 % of control; the T/C (endpoint: median tumor weight (est.), dose: 25.0 mg/kg/injection, schedule: Q07DX005 (ip), vehicle: dextrose) is 110 % of control; the T/C (endpoint: median tumor weight (est.), dose: 50.0 mg/kg/injection, schedule: Q07DX005 (ip), vehicle: dextrose) was 8 % of control.

On to `Nc1nc(Br)nc2c1ncn2C1CC(O)C(CO)O1` (stereo not given), for which the T/C is, setting by setting: (endpoint: median tumor weight change, dose: 7.5 mg/kg/injection, schedule: Q03HX009 (ip), vehicle: saline) 112 % of control; (endpoint: median tumor weight change, dose: 15.0 mg/kg/injection, schedule: Q03HX009 (ip), vehicle: saline) 99 % of control; (endpoint: median tumor weight change, dose: 30.0 mg/kg/injection, schedule: Q03HX009 (ip), vehicle: saline) 51 % of control; (endpoint: median tumor weight change, dose: 60.0 mg/kg/injection, schedule: Q03HX009 (ip), vehicle: saline) 54 % of control; (endpoint: median tumor weight change, dose: 120.0 mg/kg/injection, schedule: Q03HX009 (ip), vehicle: saline) 31 % of control.

Turning to `C1CC[N-]CC1.C1CC[N-]CC1.C1CC[N-]CC1.[Cl][Rh]([Cl])[Cl]`, the T/C was 112 % of control (endpoint: median tumor weight (est.), dose: 6.25 mg/kg/injection, schedule: Q07DX005 (ip), vehicle: saline); 118 % of control (endpoint: median tumor weight (est.), dose: 8.0 mg/kg/injection, schedule: Q07DX005 (ip), vehicle: saline); 100 % of control (endpoint: median tumor weight (est.), dose: 12.5 mg/kg/injection, schedule: Q07DX005 (ip), vehicle: saline); 73 % of control (endpoint: median tumor weight (est.), dose: 25.0 mg/kg/injection, schedule: Q07DX005 (ip), vehicle: saline); 61 % of control (endpoint: median tumor weight (est.), dose: 32.0 mg/kg/injection, schedule: Q07DX005 (ip), vehicle: saline); 84 % of control (endpoint: median tumor weight (est.), dose: 50.0 mg/kg/injection, schedule: Q07DX005 (ip), vehicle: saline). For the same compound, the T/C reads like this: (endpoint: median tumor weight (est.), dose: 64.0 mg/kg/injection, schedule: Q07DX005 (ip), vehicle: saline) 47 % of control; (endpoint: median tumor weight (est.), dose: 100.0 mg/kg/injection, schedule: Q07DX005 (ip), vehicle: saline) 45 % of control.

Consider `COc1ccc2ccccc2c1C1NC(=O)c2ccccc2N1` (stereo not given), for which the T/C was 88 % of control (endpoint: median tumor weight change, dose: 125.0 mg/kg/injection, schedule: Q01DX001 (ip), vehicle: Klucel (hydroxypropylcellulose) (HPC)); 118 % of control (endpoint: median tumor weight change, dose: 250.0 mg/kg/injection, schedule: Q01DX001 (ip), vehicle: Klucel (hydroxypropylcellulose) (HPC)); 97 % of control (endpoint: median tumor weight change, dose: 500.0 mg/kg/injection, schedule: Q01DX001 (ip), vehicle: Klucel (hydroxypropylcellulose) (HPC)); 60 % of control (endpoint: median tumor weight change, dose: 1000.0 mg/kg/injection, schedule: Q01DX001 (ip), vehicle: Klucel (hydroxypropylcellulose) (HPC)).

Turning to `CC(=O)NCCCCCCNC(C)=O`, the T/C was 58 % of control (endpoint: median tumor weight change, dose: 125.0 mg/kg/injection, schedule: Q01DX001 (ip), vehicle: saline); 67 % of control (endpoint: median tumor weight change, dose: 500.0 mg/kg/injection, schedule: Q01DX001 (ip), vehicle: saline); 52 % of control and 72 % of control (endpoint: median tumor weight change, dose: 1000.0 mg/kg/injection, schedule: Q01DX001 (ip), vehicle: saline); 39 % of control (endpoint: median tumor weight change, dose: 4000.0 mg/kg/injection, schedule: Q01DX001 (ip), vehicle: saline).

With `NC(CSC(c1ccccc1)(c1ccccc1)c1ccccc1)C(=O)O` (stereo not given), the T/C runs as follows: (endpoint: median tumor weight (est.), dose: 32.0 mg/kg/injection, schedule: Q07DX005 (ip), vehicle: Klucel (hydroxypropylcellulose) (HPC)) 101 % of control; (endpoint: median tumor weight (est.), dose: 64.0 mg/kg/injection, schedule: Q07DX005 (ip), vehicle: Klucel (hydroxypropylcellulose) (HPC)) 71 % of control; (endpoint: median tumor weight (est.), dose: 128.0 mg/kg/injection, schedule: Q07DX005 (ip), vehicle: Klucel (hydroxypropylcellulose) (HPC)) 74 % of control.

As for `CCCCNc1ccc2nnc(C)n2n1`, the T/C (endpoint: median tumor weight change, dose: 62.5 mg/kg/injection, schedule: Q01DX001 (ip), vehicle: DMSO) was 111 % of control and the T/C (endpoint: median tumor weight change, dose: 125.0 mg/kg/injection, schedule: Q01DX001 (ip), vehicle: DMSO) is 118 % of control.

`NC(Cc1cc([N+](=O)[O-])ccc1CN(CCCl)CCCl)C(=O)O` (stereo not given): the T/C (endpoint: median tumor weight (est.), dose: 2.0 mg/kg/injection, schedule: Q07DX005 (ip), vehicle: Klucel (hydroxypropylcellulose) (HPC)) is 8 % of control.

For `CCC1CC2CN(CCc3c([nH]c4ccccc34)C(C(=O)OC)(c3cc4c(cc3OC)N(C)C3C(O)(C(=O)OC)C(OC(C)=O)C5(CC)C=CCN6CCC43C65)C2)C1` (stereo not given), the T/C by setting is: (endpoint: median tumor weight change, dose: 0.31 mg/kg/injection, schedule: Q01DX001 (ip), vehicle: suspension in saline) 99 % of control; (endpoint: median tumor weight change, dose: 0.62 mg/kg/injection, schedule: Q01DX001 (ip), vehicle: saline) 165 % of control; (endpoint: median tumor weight change, dose: 0.62 mg/kg/injection, schedule: Q01DX001 (ip), vehicle: suspension in saline) 59 % of control; (endpoint: median tumor weight change, dose: 1.25 mg/kg/injection, schedule: Q01DX001 (ip), vehicle: saline) 110 % of control; (endpoint: median tumor weight change, dose: 1.25 mg/kg/injection, schedule: Q01DX001 (ip), vehicle: suspension in saline) 105 % of control; (endpoint: median tumor weight change, dose: 2.5 mg/kg/injection, schedule: Q01DX001 (ip), vehicle: suspension in saline) 88 % of control. For the same compound, the T/C was 184 % of control (endpoint: median tumor weight change, dose: 5.0 mg/kg/injection, schedule: Q01DX001 (ip), vehicle: saline); 109 % of control (endpoint: median tumor weight change, dose: 5.0 mg/kg/injection, schedule: Q01DX001 (ip), vehicle: suspension in saline); 99 % of control (endpoint: median tumor weight change, dose: 10.0 mg/kg/injection, schedule: Q01DX001 (ip), vehicle: saline); 70 % of control (endpoint: median tumor weight change, dose: 10.0 mg/kg/injection, schedule: Q01DX001 (ip), vehicle: suspension in saline).

As to `CC(C)(Oc1ccc(-c2cccc3ccccc23)cc1)C(=O)O`, the T/C is 48 % of control (endpoint: median tumor weight (est.), dose: 25.0 mg/kg/injection, schedule: Q07DX005 (ip), vehicle: Klucel (hydroxypropylcellulose) (HPC)); 52 % of control (endpoint: median tumor weight (est.), dose: 50.0 mg/kg/injection, schedule: Q07DX005 (ip), vehicle: Klucel (hydroxypropylcellulose) (HPC)); 57 % of control (endpoint: median tumor weight (est.), dose: 100.0 mg/kg/injection, schedule: Q07DX005 (ip), vehicle: Klucel (hydroxypropylcellulose) (HPC)); 79 % of control (endpoint: median tumor weight (est.), dose: 200.0 mg/kg/injection, schedule: Q07DX005 (ip), vehicle: Klucel (hydroxypropylcellulose) (HPC)); 39 % of control (endpoint: median tumor weight (est.), dose: 400.0 mg/kg/injection, schedule: Q07DX005 (ip), vehicle: Klucel (hydroxypropylcellulose) (HPC)).
